Laboratory results taken from article PMC8591608, “DNDI-6148: A Novel Benzoxaborole Preclinical Candidate for the Treatment of Visceral Leishmaniasis” (Journal of Medicinal Chemistry, 2021).
Read-outs that look alike come from different tables or passages of the source.

How the values were obtained:
L. infantum = experiment: Intramacrophage L. infantum assay; type: cell-based; conditions: Leishmania infantum
In short: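 Ex vivo splenic amastigotes from infected hamsters used to infect primary macrophages (3 × 10^4 cells/4.5 × 10^5 parasites per well) in RPMI-1640 with 5% inactivated FCS. After 5 days' exposure, Giemsa-stained burdens counted microscopically versus untreated infected (100%) and uninfected (0%) controls; EC50 from 8-point 2-fold dilutions.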

L. donovani [1] = experiment: Intramacrophage L. donovani assay; type: cell-based; conditions: Leishmania donovani
Protocol: (§1) L. infantum (MHOM/MA/67/ITMAP263) and L. donovani (MHOM/ET/67/L82) were maintained in the golden (Syrian) hamster (Mesocricetus auratus). Ex vivo amastigotes were collected from the spleen of an infected donor hamster using two centrifugation purification steps: 230g for 10 min, keeping the supernatant layer, and 4100g for 30 min, keeping the pellet. The spleen parasite burden was assessed using the Stauber technique.[25] For in vitro assays, the inoculum was prepared in RPMI-1640 medium, supplemented with 200 mM L-glutamine, 16.5 mM NaHCO3, and 5% inactivated fetal calf serum. For the in vivo model, an infection inoculum containing 2 × 10^7 amastigotes/100 μL was prepared in phosphate-buffered saline (PBS).
The assay was performed in sterile 96-well microtiter plates, each well containing 10 μL of the compound dilution and 190 μL of the PMM/amastigote inoculum (3 × 10^4 cells/4.5 × 10^5 parasites per well). Parasite multiplication was compared to untreated infected controls (100% growth) and uninfected controls (0% growth). After five-day incubation, total parasite burdens were microscopically assessed after staining the cells with a 10% Giemsa solution. The results were expressed as a percentage reduction in parasite burden compared to untreated control wells. EC50 values were determined using an extended dose range (2-fold compound dilutions, 8-point concentration curve). Miltefosine was used as the reference drug.[26] For selected compounds, this assay format was also run using the L. donovani inoculum.

[2] = 14-day exploratory toxicology study in rats; conditions: 14-day study
PMM cytotoxicity assay = type: cell-based; conditions: mouse, primary peritoneal mouse macrophages (PMM)
In short: (§2)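 PMM (harvested 2 days after 2% potato starch peritoneal stimulation) or MRC5SV2 human lung fibroblasts at 3 × 10^4 cells/mL were exposed to compound for three days at 37 °C, 5% CO2. Viability was read by resazurin fluorescence (λex 550, λem 590 nm) after 4 h, as % growth reduction vs untreated controls.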

[3] = Liver microsome stability, hamster; type: in vitro ADME; conditions: golden (Syrian), hamster liver microsomes, pH 7.4, Table 5, read-out: HamLM Clint
Protocol: Tests were performed by WuXi AppTec, China. Test compounds (at 1 μM) or positive controls (testosterone, propafenone, and diclofenac) were incubated at 37 °C with liver microsomes from Balb/c mouse, golden (Syrian) hamster, Sprague-Dawley rat, Beagle dog, or human in the presence of a NADPH regenerating system and phosphate buffer (100 mM, pH 7.4) at 0.4 or 0.8 mg/mL microsomal protein. The samples were removed at time intervals from 0 to 60, 90, or 120 min and immediately mixed with cold methanol supplemented or not with acid (3% formic acid) and centrifuged prior to analysis by LC-MS/MS using tolbutamide or propranolol as internal standards.

MRC5 cytotoxicity assay = type: cell-based; conditions: human, MRC5SV2 cells (human embryonic lung fibroblasts); Table 5; geometric mean of at least two independent tests
In short: as §2

L. donovani [4] = experiment: L. donovani mouse model of VL; type: in vivo
Protocol: Female BALB/c mice were infected with 2 × 10^7L. donovani amastigotes/0.2 mL i.v. harvested from the spleen of an infected donor RAG1B6 mouse (LSHTM). After 7 days, the mice were treated with miltefosine or DNDI-6148 for 5 consecutive days. Five days after the final dose, mice were humanely killed, liver and spleens were dissected and weighed, and impression smears were made for the calculation of parasite burden (Stauber equation).[25]

L. donovani [5] = experiment: L. donovani hamster model of VL; type: in vivo
Protocol: as §1
Female golden hamsters for the in vivo model of visceral leishmaniasis were purchased from Janvier, France (body weight 80–100 g). This study using laboratory rodents was carried out in strict accordance with all mandatory guidelines (EU directives, including the Revised Directive 2010/63/EU on the protection of Animals used for Scientific Purposes that came into force on 01/01/2013, and the declaration of Helsinki in its latest version) and was approved by the ethical committee of the University of Antwerp, Belgium (UA-ECD 2011-74). Female golden hamsters for the pharmacokinetic study were purchased from Vital River, Beijing, China. This study was conducted following institutional review and in accordance with institutional and national guidelines at WuXi AppTec (the Institutional Animal Care and Use Committee (IACUC)). Balb/c mice for the in vivo model of visceral leishmaniasis (LSHTM) were purchased from Charles River, U.K., and related studies were conducted under license PPL 70/8427 from the U.K. Home Office.
Female golden hamsters were randomly allocated to experimental groups of six animals each, based on body weight. At the start of the experiment (Day 0), each animal was infected with L. infantum or L. donovani inoculum, delivered by intracardial injection. Six hamsters were assigned to the vehicle-treated, infected control group. Six hamsters were assigned per group (1 group/compound) for the evaluation of compound and miltefosine. At Day 21 postinfection (21 dpi), all animals in each group were dosed orally for five (or ten) consecutive days (21–25 dpi): compound was dosed at 25–50 mg/kg b.i.d.; miltefosine was dosed at 40 mg/kg q.d. At Day 35 (10 days after the final oral dose), all animals were euthanized and autopsies were conducted. The study evaluated the following parameters. • 1. Adverse effects: all animals were observed daily for the occurrence/presence of adverse effects. • 2. Body weight: all animals were weighed twice per week to monitor general health. • 3. Parasite burden: amastigote burdens in each target organ (liver, spleen, and bone marrow) were determined at Day 35. The organs of individual animals were weighed (except for bone marrow). Impression smears were stained with Giemsa for microscopic examination of the total amastigote burden, defined as the mean number of amastigotes per cell multiplied by the number of cells counted (minimum 500 nuclei); the results were expressed as a percentage reduction in amastigote burden compared to vehicle-treated, infected control animals.

[6] = Table 5, geometric mean of at least two independent tests, read-out: intramacrophage L. infantum amastigote EC50
[7] = Table 2, geometric mean of at least three independent assays
[8] = Table 5, geometric mean of at least two independent tests
[9] = Table 6, geometric mean of at least two independent tests

Cc1c(C(=O)Nc2ccc3c(c2)B(O)OC3)nnn1-c1ccccn1 [Compound 23, N-(1-Hydroxy-1,3-dihydrobenzo[c][1,2]oxaborol-6-yl)-5-methyl-1-(pyridin-2-yl)-1H-1,2,3-triazole-4-carboxamide]
EC50 (L. infantum; Table 2, geometric mean of at least three independent assays, read-out: intramacrophage L. infantum EC50): 1800 nM
EC50 (L. infantum; [6]): 1800 nM
EC50 (L. donovani [1]; [7]): 1400 nM
no adverse effect limit ([2]; male and female Sprague-Dawley rats): 50 mg/kg/day
EC50 at 3 days (PMM cytotoxicity assay; [7]): > 64000 nM
CC50 at 3 days (PMM cytotoxicity assay; [8]): > 64000 nM
microsomal CLint at 1 μM [3]: < 11.9 µL/min/mg
CC50 at 3 days (MRC5 cytotoxicity assay): > 64000 nM
reduction in liver parasite burden following 5 days of p.o. dosing BID, L. donovani (L. donovani [4]; 25 mg/kg BID): 97.1%
reduction in liver parasite burden following 5 days of p.o. dosing BID, L. donovani (L. donovani [4]; 50 mg/kg BID): 99.7%
reduction in parasite burden, bone marrow, 10 days (L. donovani [5]; 25 mg/kg BID for 10 days): 99.6%
reduction in parasite burden, liver, 10 days (L. donovani [5]; 25 mg/kg BID for 10 days): 99.9%
reduction in parasite burden, spleen, 10 days (L. donovani [5]; 25 mg/kg BID for 10 days): 99.8%
reduction in parasite burden, bone marrow, 5 days (L. donovani [5]; 50 mg/kg BID for 5 days): 83.4%
reduction in parasite burden, liver, 5 days (L. donovani [5]; 50 mg/kg BID for 5 days): 99.3%
reduction in parasite burden, spleen, 5 days (L. donovani [5]; 50 mg/kg BID for 5 days): 98.6%

Cc1c(-c2ccccn2)coc1C(=O)Nc1ccc2c(c1)B(O)OC2 [Compound 28, N-(1-Hydroxy-1,3-dihydrobenzo[c][1,2]oxaborol-6-yl)-3-methyl-4-(pyridin-2-yl)furan-2-carboxamide]
EC50 (L. infantum; [6]): 500 nM
EC50 (L. donovani [1]; [9]): 400 nM
toxicity finding ([2]; rats, daily dosing of 25 mg/kg): significant multiorgan toxicity
CC50 at 72 h (PMM cytotoxicity assay; [8]): 49000 nM
CC50 at 3 days (PMM cytotoxicity assay; [9]): 54000 nM
microsomal CLint at 2 h, 1 µM [3]: 40 µL/min/mg
CC50 at 72 h (MRC5 cytotoxicity assay): 18000 nM
reduction in liver parasite burden following 5 days of p.o. dosing BID, L. donovani (L. donovani [4]; 25 mg/kg BID): 97.5%
reduction in liver parasite burden following 5 days of p.o. dosing BID, L. donovani (L. donovani [4]; 50 mg/kg BID): 99.5%
reduction in parasite burden, bone marrow, 5 days (L. donovani [5]; 25 mg/kg BID for 5 days): 94.5%
reduction in parasite burden, liver, 5 days (L. donovani [5]; 25 mg/kg BID for 5 days): 95.9%
reduction in parasite burden, spleen, 5 days (L. donovani [5]; 25 mg/kg BID for 5 days): 95.9%
reduction in parasite burden, bone marrow, 5 days (L. donovani [5]; 50 mg/kg BID for 5 days): 100%
reduction in parasite burden, liver, 5 days (L. donovani [5]; 50 mg/kg BID for 5 days): 99.9%
reduction in parasite burden, spleen, 5 days (L. donovani [5]; 50 mg/kg BID for 5 days): 100%
